Converted amounts (≈) assume the structure as drawn. “And” between values parts separate entries of the source, which are not always exact repeats. Equal values may be shown once. Read-outs that look alike come from different tables or passages of the source.
Tests used:
[1] = test system: Arizona hinshaw (paracolon); assay: in vitro tube dilution test (MIC); assay type: cell-based
[2] = test system: naturally-occurring pneumoenteritis complex infection (pasteurella species, E. coli and salmonellae); assay: Pneumoenteritis complex disease in calves, first test; assay type: in vivo; settings: for Mortality / Avg. Wt. Gain: milk replacer, 56 days; for Avg. Wt. Gain: survivors
Protocol: Our compound, 1-(2-hydroxyethyl)-3-nitro-4-pyrazolecarboxamide, was evaluated in the control of a naturally-occurring pneumoenteritis complex infection of calves. […] A group of 24 calves was allocated randomly into three treatment groups. The average weights of the treatment groups were nearly identical at the start of the experiment. The calves were housed in quarters which were kept as clean as typical calf quarters, but in which calves suffering from pneumoenteritis complex had previously been housed. […] One group was a control group, and was fed on a typical milk replacer diet. The other two groups received 200 mg. and 400 mg. per day respectively of the 3-nitro-pyrazole compound, mixed in their milk replacer diets.
The calves were carefully observed daily to detect signs of illness as quickly as such signs appeared. The calves were weighed at weekly intervals. Various organs were removed from the calves which died during the experiment, and cultures were prepared from the organs to identify microorganisms. At the end of the 56-day experiment, cultures were prepared from nasal and rectal swabs of the surviving calves, and microorganisms in the cultures were identified.

Clostridium perfringens = assay: microbe, parasite or virus in culture; assay type: cell-based
[3] = test system: Streptococcus sp. (group D); assay: agar dilution technique (MIC); assay type: cell-based
S. typhimurium = assay: Salmonella typhimurium in chickens, medicated feed; assay type: in vivo, chicks; settings: for Avg. Wt.: surviving chicks
Alkaligenes fecalis = assay: agar dilution technique (MIC); assay type: cell-based
Mycoplasma hyopneumoniae = assay: in vitro tube dilution test (MIC); assay type: cell-based; settings: Mesomycoplasma hyopneumoniae
M. gallisepticum = assay: Mycoplasma gallisepticum in chickens; assay type: in vivo
Protocol: A group of broiler type chickens, weighing about 1265 gm., were obtained from a homogeneous source flock. The birds were allocated into 12-bird treatment groups of equal weight. Four treatment groups were used in each of the treatments, including the untreated infected controls; two groups were held as normal controls.
The birds, other than the normal controls, were challenged by administering two 0.2 ml. injections of a freshly thawed M. gallisepticum culture to each bird, one injection in the wing vein and one in the air sac. Immediately after the challenge, four of the treatment groups were treated by injecting 25 mg./kg., intramuscularly, of 1-(2-hydroxyethyl)-3-nitro-4-pyrazolecarboxamide to each chicken. The other four treated groups received the same compound at 2 gm./gal. (about 50 mg./kg./day) in their drinking water for a period of 41/2 days after the challenge was administered.
The birds were held and observed for about 3 weeks. Mortality in the experiment was negligible. At the end of the observation period, the birds were sacrificed and examined for M. gallisepticum lesions of the air sac. A sample of blood from each bird was tested to determine the presence of M. gallisepticum antibodies. […] The final average weights and the air sac lesion counts are shown below.

Salmonella typhosa = assay: agar dilution technique (MIC); settings: Salmonella enterica
Shigella sp. = assay: agar dilution technique (MIC); assay type: cell-based
Pasteurella multocida = assay: in vitro tube dilution test (MIC); assay type: cell-based; settings: tube dilution, read-out: MIC
Method in brief: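 Standard tube dilution test; MIC is the lowest compound concentration controlling growth, given in μg/mL.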

P. multocida = assay: Pasteurellosis in chickens; assay type: in vivo; settings: 100 gm. per ton of feed
Streptococcus sp. = assay: in vitro tube dilution test (MIC); assay type: cell-based
Erwinia amylovora = assay: Fire blight of pear, in vivo greenhouse test
Protocol: An in vivo test was conducted against the fire blight organism, Erwinia amylovora. Plants infected with E. amylovora were sprayed with aqueous dispersions containing 100 ppm. and 500 ppm. of the test compounds. […] The compounds are identified below by their compound numbers in the above listing.

Pasteurella hemolytica = assay: in vitro tube dilution test (MIC); assay type: cell-based
[4] = test system: naturally-occurring pneumoenteritis complex infection (pasteurella species, E. coli and salmonellae); assay: Pneumoenteritis complex disease in calves, second test; assay type: in vivo
Protocol: The test reported below was conducted in general identically with the test above. All of the calves used in the test were approximately 3 days old when the test began, and the test ran for 56 days.
The treated group received 200 mg./day/calf (about 3-5 mg./kg./day) of 1-(2-hydroxyethyl)-3-nitro-4-pyrazolecarboxamide, which was administered in the calves' milk replacer diet.
The table below reports the average weight gain of the surviving animals and the mortality of the calves in each group.

Salmonella pullorum 9-25 = assay: in vitro tube dilution test (MIC); assay type: cell-based; settings: Salmonella enterica; Salmonella pullorum 9-25, tube dilution
Diplococcus pneumoniae = assay: agar dilution technique (MIC); assay type: cell-based; settings: Streptococcus pneumoniae
Hemophilus gallinarum = assay: in vitro tube dilution test (MIC); assay type: cell-based
[5] = 200 mg./day/calf (3-5 mg./kg./day)
[6] = 400 mg./day/calf (6-10 mg./kg./day)

`NC(=O)c1cn(CCO)nc1[N+](=O)[O-]` [Compound 32, 1-(2-hydroxyethyl)-3-nitro-4-pyrazolecarboxamide] was tested, and the MIC [1] was 6.25 µg/mL (≈ 31.2 µM), the Mortality [2, 5] was 1/8 and the “Avg. Wt. Gain” value [2, 5] was 36.6 lbs. The Mortality [2, 6] was 1/8, the “Avg. Wt. Gain” value [2, 6] was 55.3 lbs and the “surviving treated calves with P. multocida or hemolytica in nasal swabs” value ([2]; 200 and 400 mg. per day groups, end of 56 days) was 11 of the 14 surviving treated calves. For the same compound, the “surviving calves with E. coli in rectal swabs” value ([2]; of 14 surviving treated calves, end of 56 days) was 12 of the surviving calves, the MIC (Clostridium perfringens) was 25 to 50 µg/mL (≈ 125 to 250 µM) and the MIC [3] was 32 µg/mL (≈ 160 µM). The Survival (S. typhimurium; Test A, 100 gm./ton feed) was 20/36, the “Avg. Wt.” value (S. typhimurium; Test A, 100 gm./ton feed) was 94 gm and the Survival (S. typhimurium; Test B, 200 gm./ton feed) was 35/36. For the same compound, the “Avg. Wt.” value (S. typhimurium; Test B, 200 gm./ton feed) was 107 gm, the Survival (S. typhimurium; Test C, 200 gm./ton feed) was 34/48 and the “Avg. Wt.” value (S. typhimurium; Test C, 200 gm./ton feed) was 71 gm. For the same compound, the MIC (Alkaligenes fecalis) was 128 µg/mL (≈ 640 µM), the MIC (Mycoplasma hyopneumoniae) was 50 µg/mL (≈ 250 µM) and the “Air Sac Lesions” value (M. gallisepticum; 25 mg./kg. (injected)) was 41/48. The “Avg. Wt.” value (M. gallisepticum; 25 mg./kg. (injected)) was 2093 gm, the “Air Sac Lesions” value (M. gallisepticum; 2.0 gm./gal. drinking water) was 24/47 and the “Avg. Wt.” value (M. gallisepticum; 2.0 gm./gal. drinking water) was 2188 gm. For the same compound, the “increase of birds' weight” value (M. gallisepticum; in one case (average, each)) was “more than 160 gm”, the “increase of birds' weight” value (M. gallisepticum; in the other treatment (average, each)) was roughly 260 gm and the MIC (Salmonella typhosa) was 2 µg/mL (≈ 9.99 µM). The MIC (Shigella sp.) was 16 µg/mL (≈ 79.9 µM), the MIC (Pasteurella multocida; Cattle Isolates) was less than 1.56 µg/mL and the MIC (Pasteurella multocida; Swine Isolate (first line)) was greater than 50 µg/mL. For the same compound, the MIC (Pasteurella multocida; Swine Isolate (second line)) was 6.25 µg/mL (≈ 31.2 µM), the MIC (Pasteurella multocida; Turkey Isolates) was greater than 50 µg/mL and the Mortality (P. multocida) was “about 12%”. For the same compound, the “presence of isolable P. multocida in treated birds” value (P. multocida) was “about half of the treated birds”, the “Culture Isolation” value (P. multocida; individual 8-bird group) was 6/8 and 3/8 and the “Mortality Rate” value (P. multocida; individual 8-bird group) was 2/8 and 0/8. For the same compound, the “Culture Isolation, Total” value (P. multocida; total of two groups) was 9/16, the “Mortality Rate, Total” value (P. multocida; total of two groups) was 2/16 and the MIC (Streptococcus sp.) was 25 µg/mL (≈ 125 µM). The “Percent Control of fire blight” value (Erwinia amylovora; 100 ppm.) was 50%, the “Percent Control of fire blight” value (Erwinia amylovora; 500 ppm.) was 92% and the MIC (Pasteurella hemolytica) was less than 1.56 µg/mL. The Mortality ([4]; 200 mg./day/calf) was “about 12%”, the “surviving treated calves with E. coli in rectal swabs” value ([4]; 200 mg./day/calf) was “all of the surviving treated calves” and the “survivors with P. multocida organisms in nasal secretions” value ([4]; 200 mg./day/calf) was 6 of the survivors. The Mortality ([4]; 200 mg./day/calf (about 3-5 mg./kg./day), 56 days) was 1/8, the “Avg. Wt. Gain” value ([4]; 200 mg./day/calf (about 3-5 mg./kg./day), 56 days, survivors) was 52.1 lbs and the MIC (Salmonella pullorum 9-25) was less than 1.56 µg/mL. It also gave an MIC (Diplococcus pneumoniae) of 2 µg/mL (≈ 9.99 µM) and an MIC (Hemophilus gallinarum) of 0.78 µg/mL (≈ 3.9 µM).
